In ChEMBL document CHEMBL1649537, “Imcroporin, a new cationic antimicrobial peptide from the venom of the scorpion Isometrus maculates” (2009):
In brackets after ≈: the same amount, converted by molar mass. Activity calls are given as the source filed them. The calls are words filed in the database; no cut-off is given here.

What was measured:
Micrococcus luteus = assay: Antimicrobial activity against Micrococcus luteus AB93113 by microdilution method; format: functional
Staphylococcus = assay: Antimicrobial activity against methicillin-resistant coagulase-negative Staphylococcus P1369 by microdilution method; format: functional
Bacillus subtilis = assay: Antimicrobial activity against Bacillus subtilis AB91021 by microdilution method; format: functional
Bacillus thuringiensis = assay: Antimicrobial activity against Bacillus thuringiensis AB93066 by microdilution method; format: functional
Staphylococcus aureus [1] = assay: Antimicrobial activity against methicillin-resistant Staphylococcus aureus P1386 by microdilution method; format: functional
Escherichia coli = assay: Antimicrobial activity against Escherichia coli AB94012 by microdilution method; format: functional
Staphylococcus aureus [2] = assay: Antimicrobial activity against methicillin-resistant Staphylococcus aureus P1374 by microdilution method; format: functional
Staphylococcus aureus [3] = assay: Antimicrobial activity against Staphylococcus aureus AB94004 by microdilution method; format: functional
Staphylococcus aureus [4] = assay: Antimicrobial activity against methicillin-resistant Staphylococcus aureus P1386 at 200 ug/ml after 9 hrs by time-kill analysis; format: functional, organism-based
[5] = tested on: Staphylococcus epidermidis; assay: Antimicrobial activity against penicillin-sensitive Staphylococcus epidermidis P1111 by microdilution method; format: functional
Pseudomonas aeruginosa = assay: Antimicrobial activity against Pseudomonas aeruginosa AB92037 by microdilution method; format: functional
[6] = tested on: Staphylococcus epidermidis; assay: Antimicrobial activity against penicillin-resistant Staphylococcus epidermidis P1389 by microdilution method; format: functional
Staphylococcus aureus [7] = assay: Antimicrobial activity against methicillin-resistant Staphylococcus aureus P1386 at 500 ug/ml after 9 hrs by time-kill analysis; format: functional, organism-based

CN[C@H](CC(C)C)C(=O)N[C@H]1C(=O)N[C@@H](CC(N)=O)C(=O)N[C@H]2C(=O)N[C@H]3C(=O)N[C@H](C(=O)N[C@H](C(=O)O)c4cc(O)cc(O)c4-c4cc3ccc4O)[C@H](O)c3ccc(c(Cl)c3)Oc3cc2cc(c3O[C@@H]2O[C@H](CO)[C@@H](O)[C@H](O)[C@H]2O[C@H]2C[C@](C)(N)[C@H](O)[C@H](C)O2)Oc2ccc(cc2Cl)[C@H]1O [VANCOMYCIN]
MIC (Micrococcus luteus): 3 µg/mL (≈ 2.07 µM)
MIC (Staphylococcus): 4 µg/mL (≈ 2.76 µM)
MIC (Bacillus subtilis): 3 µg/mL (≈ 2.07 µM)
MIC (Bacillus thuringiensis): 3 µg/mL (≈ 2.07 µM)

CO/N=C(\C(=O)N[C@@H]1C(=O)N2C(C(=O)O)=C(COC(C)=O)CS[C@H]12)c1csc(N)n1 [CEFOTAXIME]
MIC (Staphylococcus aureus [1]): 400 µg/mL (≈ 878 µM)
MIC (Micrococcus luteus): 3 µg/mL (≈ 6.59 µM)
MIC (Escherichia coli): 3 µg/mL (≈ 6.59 µM)
MIC (Staphylococcus aureus [2]): 400 µg/mL (≈ 878 µM)
MIC (Staphylococcus): 100 µg/mL (≈ 220 µM)
MIC (Staphylococcus aureus [3]): 3 µg/mL (≈ 6.59 µM)
MIC (Bacillus subtilis): 50 µg/mL (≈ 110 µM)
Activity (Staphylococcus aureus [4]): inactive
MIC [5]: 8 µg/mL (≈ 17.6 µM)
MIC (Bacillus thuringiensis): 12.5 µg/mL (≈ 27.4 µM)
MIC (Pseudomonas aeruginosa): 12.5 µg/mL (≈ 27.4 µM)
MIC [6]: 12.5 µg/mL (≈ 27.4 µM)

CC1(C)S[C@@H]2[C@H](NC(=O)Cc3ccccc3)C(=O)N2[C@H]1C(=O)O [PENICILLIN G]
MIC (Staphylococcus aureus [1]): 1000 µg/mL (≈ 2990 µM)
MIC (Micrococcus luteus): 25 µg/mL (≈ 74.8 µM)
MIC (Staphylococcus aureus [2]): 1000 µg/mL (≈ 2990 µM)
MIC (Staphylococcus): 2000 µg/mL (≈ 5980 µM)
MIC (Staphylococcus aureus [3]): 6 µg/mL (≈ 17.9 µM)
MIC (Bacillus subtilis): 50 µg/mL (≈ 150 µM)
MIC [5]: 4 µg/mL (≈ 12 µM)
Activity (Staphylococcus aureus [7]): inactive
MIC (Bacillus thuringiensis): 12.5 µg/mL (≈ 37.4 µM)
MIC [6]: 1000 µg/mL (≈ 2990 µM)
